We go through 2 compounds from ChEMBL document CHEMBL5365437, “Cannabinoformins: Designing Biguanide-Embedded, Orally Available, Peripherally Selective Cannabinoid-1 Receptor Antagonists for Metabolic Syndrome Disorders” (J Med Chem, 2023).

A short description of series [1]: Drug uptake in C57BL/6J mouse skeletal muscle at 1 mg/kg, po by LC-MS/MS analysis. Type of series: ADME, organism-based, Skeletal muscle tissue. Particulars: in vivo, read-out: Drug uptake.
Series [2] can be described thus: Drug uptake in C57BL/6J mouse liver at 3 mg/kg, po by LC-MS/MS analysis. It is filed as ADME, organism-based. Conditions: in vivo, read-out: Drug uptake.
Series [3] relates to Mus musculus. Briefly: Modulation of metabolic parameters in diet-induced obesity C57BL/6J mouse model assessed as reduction in food intake at 10 mg/kg, po for 1 week. It is filed as functional, organism-based. Particulars: time 1.0 weeks.
The test system of series [4] is Mus musculus. Put plainly: Increase in fat oxidation in CB1-knock out mouse at 30 mg/kg, po measured for 24 hrs. It is filed as functional, organism-based.
Series [5] can be described thus: Tmax in C57BL/6J mouse serum at 10 mg/kg, po by LC-MS/MS analysis. Type of series: ADME, organism-based.
Series [6] addresses T1, Cannabinoid receptor 1 (Mus musculus, UniProt P47746). Briefly: Displacement of [3H][…] from CB1 receptor in mouse brain plasma membrane by radioligand displacement analysis. It is filed as cell membranes. A general note: Displacement assays read how much labelled ligand stays bound in the presence of the test substance.
A short description of series [7]: Cmax in C57BL/6J mouse serum at 10 mg/kg, po by LC-MS/MS analysis. More on the design: dose 10 mg/kg, route po. Type of series: ADME, organism-based.
A short description of series [8]: Half life in mouse. Particulars: in vivo. Type of series: ADME, organism-based.
The test system of series [9] is Mus musculus. Briefly: In vivo activation of AMPK in C57BL/6J mouse assessed as increase in AMPK phosphorylation at Thr172 residue in liver at 10 mg/kg, po measured after 2 to 4 hrs by western blot analysis. Type of series: functional, organism-based. Conditions: time 2-4 hrs. (In general: A western blot detects proteins with antibodies after separation by electrophoresis.)

Series [10] deals with Mus musculus. Briefly: Modulation of metabolic parameters in diet-induced obesity C57BL/6J mouse model assessed as reduction in body weight at 10 mg/kg, po for 1 week. Type of series: functional, organism-based. Conditions: time 1.0 weeks.
Series [11] can be described thus: Drug uptake in C57BL/6J mouse plasma at 10 mg/kg, po measured after 1 hr by LC-MS/MS analysis. It is filed as ADME, organism-based.
Series [12] can be described thus: Toxicity in C57BL/6J mouse assessed as induction of anxiety by measuring increase in time spent in closed arms at 10 mg/kg, po measured after 1 hr by elevated plus maze test. Type of series: organism-based. Conditions: in vivo.
Series [13] in a line: Genotoxicity against Salmonella typhimurium TA98 in presence of S9 metabolic activation at 125 ug/ml by Ames test. Type of series: toxicity. Conditions: salmonella enterica subsp. enterica serovar typhimurium, dose 125 µg/ml. On the technique in general: The Ames test detects mutagens through reverse mutation in bacteria.
The nature of series [14]: Half life in C57BL/6J mouse serum at 10 mg/kg, po by LC-MS/MS analysis. Type of series: ADME, organism-based.
The nature of series [15]: Toxicity in C57BL/6J mouse assessed as induction of anxiety by measuring reduction in time spent in open arms at 10 mg/kg, po measured after 1 hr by elevated plus maze test. Conditions: in vivo. It is filed as organism-based.
A short description of series [16]: Half life in human. It is filed as ADME.
Series [17] addresses T1, Cannabinoid receptor 1. Put plainly: Antagonist activity at CB1 receptor in mouse brain membrane assessed as inhibition of […]-induced GTPgammaS binding by [35S]GTPgammaS binding analysis. Type of series: functional, cell membranes.
Series [18] in a line: Genotoxicity against Salmonella typhimurium TA100 in presence of S9 metabolic activation at 125 ug/ml by Ames test. It is filed as toxicity. Particulars: salmonella enterica subsp. enterica serovar typhimurium, dose 125 µg/ml.
Series [19] in a line: Bound fraction in mouse plasma.
Series [20] concerns Mus musculus. Put plainly: In vivo antagonist activity at CB1 receptor in C57BL/6J mouse assessed as inhibition of ACEA-induced reduction of upper GI motility at 3 to 10 mg/kg, po administered with CB1 agonist, ACEA and 30 mins later treated with compound and measured after 30 mins. It is filed as functional, organism-based. Conditions: dose 3-10 mg/kg.
In series [21] the target is Voltage-gated inwardly rectifying potassium channel KCNH2 (Homo sapiens, UniProt Q12809). Briefly: Inhibition of hERG. It is filed as toxicity.
Sequence of Voltage-gated inwardly rectifying potassium channel KCNH2 (Q12809 whole entry): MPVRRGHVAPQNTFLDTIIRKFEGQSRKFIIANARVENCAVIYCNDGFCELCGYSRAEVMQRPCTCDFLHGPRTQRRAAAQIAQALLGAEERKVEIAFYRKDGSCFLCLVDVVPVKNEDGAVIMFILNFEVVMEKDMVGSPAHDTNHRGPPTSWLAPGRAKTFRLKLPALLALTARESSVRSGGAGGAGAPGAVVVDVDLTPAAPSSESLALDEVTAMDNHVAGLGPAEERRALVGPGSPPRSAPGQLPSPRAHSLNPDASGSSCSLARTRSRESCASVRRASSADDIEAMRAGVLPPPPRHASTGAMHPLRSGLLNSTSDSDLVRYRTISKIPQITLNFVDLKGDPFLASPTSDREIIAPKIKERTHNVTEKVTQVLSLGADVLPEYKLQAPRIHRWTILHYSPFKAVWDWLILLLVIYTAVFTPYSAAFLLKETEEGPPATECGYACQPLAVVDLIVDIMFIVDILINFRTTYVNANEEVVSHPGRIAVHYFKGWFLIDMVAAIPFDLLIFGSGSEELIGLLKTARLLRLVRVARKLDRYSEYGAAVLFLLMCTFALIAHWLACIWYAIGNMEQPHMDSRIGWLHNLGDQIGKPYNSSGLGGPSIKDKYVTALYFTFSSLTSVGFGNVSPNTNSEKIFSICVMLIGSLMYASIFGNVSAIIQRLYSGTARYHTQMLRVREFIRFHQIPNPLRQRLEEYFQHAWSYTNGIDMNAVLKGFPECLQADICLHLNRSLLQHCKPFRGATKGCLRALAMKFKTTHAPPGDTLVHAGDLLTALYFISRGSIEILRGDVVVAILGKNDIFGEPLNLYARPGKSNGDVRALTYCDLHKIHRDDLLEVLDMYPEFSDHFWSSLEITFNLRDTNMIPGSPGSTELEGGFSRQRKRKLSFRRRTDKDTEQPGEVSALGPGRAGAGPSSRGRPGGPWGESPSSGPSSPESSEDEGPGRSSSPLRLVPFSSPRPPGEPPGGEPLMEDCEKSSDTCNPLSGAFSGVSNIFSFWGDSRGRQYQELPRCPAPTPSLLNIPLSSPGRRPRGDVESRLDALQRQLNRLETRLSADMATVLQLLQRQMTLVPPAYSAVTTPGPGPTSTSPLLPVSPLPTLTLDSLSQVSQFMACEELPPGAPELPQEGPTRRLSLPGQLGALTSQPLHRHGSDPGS
Series [22] has as its system Mus musculus. Put plainly: Modulation of metabolic parameters in diet-induced obesity C57BL/6J mouse model assessed as improvement in insulin sensitivity at 10 mg/kg, po for 1 week by insulin sensitivity test. It is filed as functional, organism-based. Particulars: time 1.0 weeks.
Series [23] can be described thus: Bound fraction in human plasma.
For series [24], the target named is AMP-activated protein kinase (AMPK) alpha-1/beta-1/gamma-1 (Homo sapiens) (UniProt P54619+Q9Y478+Q13131). Briefly: Activation of recombinant AMPK alpha1/beta1/gamma1 (unknown origin) at 10 uM relative to control. It is filed as protein-complex assay. Conditions: filed as activator.
Sequence of AMP-activated protein kinase (AMPK) alpha-1/beta-1/gamma-1 (Homo sapiens) (P54619 whole entry): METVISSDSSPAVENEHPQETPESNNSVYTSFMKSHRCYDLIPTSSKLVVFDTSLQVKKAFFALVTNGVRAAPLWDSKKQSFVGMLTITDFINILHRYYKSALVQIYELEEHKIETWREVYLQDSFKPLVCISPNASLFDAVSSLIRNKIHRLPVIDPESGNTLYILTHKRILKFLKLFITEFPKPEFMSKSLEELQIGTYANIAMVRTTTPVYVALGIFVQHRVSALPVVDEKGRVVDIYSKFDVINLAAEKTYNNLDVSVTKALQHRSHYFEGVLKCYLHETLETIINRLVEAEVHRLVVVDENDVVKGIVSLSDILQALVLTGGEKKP
Sequence of AMP-activated protein kinase (AMPK) alpha-1/beta-1/gamma-1 (Homo sapiens) (Q13131 whole entry partner): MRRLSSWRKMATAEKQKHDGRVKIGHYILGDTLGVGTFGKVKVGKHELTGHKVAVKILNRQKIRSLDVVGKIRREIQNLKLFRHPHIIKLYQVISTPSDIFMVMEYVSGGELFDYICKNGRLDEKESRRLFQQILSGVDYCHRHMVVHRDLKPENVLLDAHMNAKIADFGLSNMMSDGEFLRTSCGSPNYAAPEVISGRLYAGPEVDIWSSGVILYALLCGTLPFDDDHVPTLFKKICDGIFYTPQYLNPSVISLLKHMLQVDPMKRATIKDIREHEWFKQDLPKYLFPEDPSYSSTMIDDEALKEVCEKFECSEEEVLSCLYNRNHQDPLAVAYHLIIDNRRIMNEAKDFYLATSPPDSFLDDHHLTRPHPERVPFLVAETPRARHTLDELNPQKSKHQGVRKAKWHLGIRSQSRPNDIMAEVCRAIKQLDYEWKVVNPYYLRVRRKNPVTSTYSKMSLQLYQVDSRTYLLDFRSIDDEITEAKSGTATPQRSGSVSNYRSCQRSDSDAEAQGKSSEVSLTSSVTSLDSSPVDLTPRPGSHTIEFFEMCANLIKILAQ
Sequence of AMP-activated protein kinase (AMPK) alpha-1/beta-1/gamma-1 (Homo sapiens) (Q9Y478 2-270 partner limits assumed): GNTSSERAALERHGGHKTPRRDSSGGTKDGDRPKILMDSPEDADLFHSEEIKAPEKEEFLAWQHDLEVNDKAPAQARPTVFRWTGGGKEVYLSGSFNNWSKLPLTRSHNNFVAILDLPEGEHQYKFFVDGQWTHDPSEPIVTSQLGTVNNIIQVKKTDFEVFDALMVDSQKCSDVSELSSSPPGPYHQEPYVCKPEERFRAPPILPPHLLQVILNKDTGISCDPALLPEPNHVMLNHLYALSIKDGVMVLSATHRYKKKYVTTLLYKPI
The nature of series [25]: Toxicity in C57BL/6J mouse assessed as induction of anxiety by measuring increase in time spent in closed arms at 10 mg/kg, po measured after 28 days by elevated plus maze test. It is filed as organism-based. Conditions: in vivo, 672 h, time 28 day.
The nature of series [26]: Drug uptake in C57BL/6J mouse liver at 10 mg/kg, po measured after 1 hr by LC-MS/MS analysis. Type of series: ADME, organism-based. Particulars: read-out: Drug uptake.
Series [27] is described as follows: Drug uptake in C57BL/6J mouse brain at 10 mg/kg, po measured after 1 hr by LC-MS/MS analysis. Type of series: ADME, organism-based. Particulars: read-out: Drug uptake.
Series [28] relates to Mus musculus. Briefly: Modulation of metabolic parameters in diet-induced obesity C57BL/6J mouse model assessed as improvement in glucose tolerance at 10 mg/kg, po for 1 week by glucose tolerance test. Type of series: functional, organism-based. Conditions: time 1.0 weeks.
In a further series the target is Cannabinoid receptor 2 (Homo sapiens, UniProt P34972). Briefly: Displacement of [3H][…] from CB2 receptor (unknown origin) expressed in CHO-K1 cells by radioligand displacement analysis. Type of series: cell-based.
Sequence of Cannabinoid receptor 2 (P34972 whole entry): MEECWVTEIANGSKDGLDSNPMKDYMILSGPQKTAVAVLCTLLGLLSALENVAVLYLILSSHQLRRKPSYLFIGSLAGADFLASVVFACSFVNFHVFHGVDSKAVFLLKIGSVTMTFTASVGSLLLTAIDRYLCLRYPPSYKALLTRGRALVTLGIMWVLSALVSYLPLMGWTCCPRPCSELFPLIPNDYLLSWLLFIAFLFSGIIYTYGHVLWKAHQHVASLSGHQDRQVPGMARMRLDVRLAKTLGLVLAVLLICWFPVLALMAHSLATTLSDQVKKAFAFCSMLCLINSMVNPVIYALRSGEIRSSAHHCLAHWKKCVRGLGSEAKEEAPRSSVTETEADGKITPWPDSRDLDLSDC
Series [29] in a line: Lipophilicity, logD of compound at pH 7.4. It is filed as physicochemical. Conditions: buffer.
Series [30] is described as follows: Toxicity in C57BL/6J mouse assessed as induction of anxiety by measuring reduction in time spent in open arms at 10 mg/kg, po measured after 28 days by elevated plus maze test. Type of series: organism-based. Particulars: in vivo, 672 h, time 28 day.
Series [31] is described as follows: Genotoxicity against Salmonella typhimurium TA100 in absence of S9 metabolic activation at 125 ug/ml by Ames test. It is filed as toxicity. Particulars: salmonella enterica subsp. enterica serovar typhimurium, dose 125 µg/ml.

The source made the active and inactive calls. A value given as a limit tells only on which side of the number the result lay.

T1 sequence (P47746 whole entry): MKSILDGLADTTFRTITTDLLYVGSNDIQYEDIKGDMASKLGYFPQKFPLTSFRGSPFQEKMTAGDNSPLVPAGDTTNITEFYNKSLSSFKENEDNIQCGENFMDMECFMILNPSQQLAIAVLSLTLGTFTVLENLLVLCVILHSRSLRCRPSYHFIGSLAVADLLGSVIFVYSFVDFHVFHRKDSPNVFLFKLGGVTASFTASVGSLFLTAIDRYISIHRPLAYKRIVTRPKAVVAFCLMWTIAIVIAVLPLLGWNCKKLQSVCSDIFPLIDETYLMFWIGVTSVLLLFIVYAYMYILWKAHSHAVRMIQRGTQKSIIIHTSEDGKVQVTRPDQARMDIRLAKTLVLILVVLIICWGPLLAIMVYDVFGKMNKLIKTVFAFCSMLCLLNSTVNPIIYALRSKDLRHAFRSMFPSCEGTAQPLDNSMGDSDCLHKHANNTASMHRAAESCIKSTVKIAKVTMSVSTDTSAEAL

As to `CC(=O)N/C(N)=N/C(=N\S(=O)(=O)c1ccc(C(F)(F)F)cc1)N1C[C@H](c2ccccc2)C(c2ccc(Cl)cc2)=N1`, the concentration in series [1] came to 0.5 µM; in series [2] it was 14 µM.
With `CC(=O)N/C(N)=N/C(=N/S(=O)(=O)c1ccc(Cl)cc1)N1C[C@H](c2ccccc2)C(c2ccc(Cl)cc2)=N1`, the outcome with Mus musculus [3], in the series on Mus musculus [4], with Mus musculus [9], in the series with Mus musculus [10], in the series with Mus musculus [22] and in the series on Mus musculus [28] was Active. Further, the Tmax in series [5] turned out to be 60 min. In addition, the inhibition constant (Ki) at Cannabinoid receptor 1 [6] turned out to be 0.81 nM; at Cannabinoid receptor 2, 476 nM. Also, the highest level in [7] (Cmax) was 4 µM. The figures for the half-life in [8], in series [14] and in series [16] were 7.3 min, approximately 180 min and 8.1 min, respectively. For the same compound, the concentration at 1 h in series [11] stood at 3100 ng/mL; in series [26], 46700 ng/g; in [27], 140 ng/g. In addition, the Activity result in series [12] is “Non-Toxic”; in series [13], “Non-Toxic”; in [15], “Non-Toxic”; in [18], “Non-Toxic”; in the series with Mus musculus [20], “Dose-Dependent Effect”; in [24], 134%. Moreover, the Activity entry in series [25], in series [30] and in series [31] was “Non-Toxic” each time. Also, the figures for the IC50 (at Cannabinoid receptor 1 [17]; in series [21]) were 3.9 nM and more than 100000 nM, respectively. The fraction bound in [19] turned out to be 1; in series [23], 0.999. The compound also returned a logD in series [29] of 4.3.

One may read the Tmax as the time at which the peak concentration occurs. What is called Ki is the equilibrium dissociation constant of an inhibitor or competing ligand from its target. Low readings indicate higher affinity, high ones lower affinity. A word on the Cmax: it is the highest concentration seen after dosing. By half-life is commonly meant the time needed for the level to fall by half in the phase considered. Low values mean rapid decline, high ones slow decline. What is called IC50 is the concentration that inhibits the measured activity by half. By logD is commonly meant the decadic logarithm of the distribution of all forms, ionised or not, between an organic phase and buffer at a given pH. The low end stands for a more hydrophilic compound, the high end for a more lipophilic compound.
